Measurements reported in patent US20160184274A1, “Methods for inhibiting mesenchymal phenotype after epithelial-to-mesenchymal transition” (Fibrostatin, S.L., priority 2014, published 2016).
Entries after “also recorded” stand apart in the source; their conditions may differ.

Key:
[1] = system: A549 tumors with epithelial phenotype; conditions: T12 20 mg/kg/day in drinking water, alone or with doxorubicin 4 mg/kg/week i.p.; previously reported, WO/2014/006020; cited from earlier work
4T1 cells = assay: Cell death / caspase 3 activation in 4T1 cells; assay type: cell-based, Mouse; conditions: same T12 concentrations as for circulating 4T1 cells; FIG. 11D-E
Method: FIG. 11. T12 targets circulating 4T1 cancer cells. A, Balb/c female mice were inoculated with 4T1 mouse breast cancer cells at mammary fat pads. At day 20 after cell inoculation mice were subjected to PET analysis for metastases detection. White arrows denote metastatic foci at the spinal cord. B, Balb/c female from A were either left untreated (Control), or were treated with T12 in drinking water from day 20. At day 35 blood was seeded in the presence of 6-thioguanine and circulating 4T1 cells selected and further cultured. Shown are phase contrast images of the resulting cultures acquired with an inverted microscope. […] C, circulating 4T1 cells recovered as in B and 4T1 cells were cultured in standard 2D cultures and subjected to RNA extraction, and RNA samples were analyzed by RT-qPCR. Shown are the relative quantities (RQ) of the indicated mRNAs of circulating 4T1 cells using levels from 4T1 cells as reference. […] Dead cells in culture media were quantified by measuring cell size using an automated cell counter (Moxi Z, Orflo). […] E, circulating 4T1 cells recovered as in B or 4T1 cells were cultured in ultra-low binding plates and treated with the indicated concentrations of T12 for 9 days, cells were lysed and analyzed by Western blot using antibodies specific for activated caspase 3. The levels of GAPDH were determined for loading control purposes. […]

[2] = system: patient-derived cisplatin-resistant mesenchymal NSCLC cells; conditions: WO/2014/006020; cited from earlier work

COc1ccc(-c2ccc(-c3cccc(C)c3)c(C)c2)c(CCC(=O)O)c1 [T12, 3-[4″-methoxy-3,2′-dimethyl-(1,1′;4′,1″)terphenyl-2″-yl] propionic acid]
tumor growth (relative tumor volume) [1]: required the synergistic action of doxorubicin to efficiently inhibit tumor growth; also recorded: synergistic with doxorubicin | sensitivity to T12: dead cells and activated caspase 3 (4T1 cells): little effect on 4T1 cells | toxicity [2]: high-toxicity
